Measurements: patent US20080312330A1, “Methods for Reducing Mortality and Morbidity by Postoperative Administration of a Pharmacologic Cardiovascular Agent” (priority 1996, published 2008)
Several values for one entry are separate records, joined by “and”; a condition that tells them apart may be missing. Identical values can stand only once.

How the values were obtained:
[1] = system: patients with, or at risk for coronary artery disease and scheduled for elective noncardiac surgery; experiment: Randomized, blinded, placebo-controlled trial: mortality and cardiovascular outcomes over two years following noncardiac surgery; assay type: in vivo
Description: Eligible patients included those with, or at risk for coronary artery disease and scheduled for elective noncardiac surgery requiring general anesthesia at the San Francisco Veterans Affairs Medical Center. The specific inclusion and exclusion criteria have been described previously (Mangano et al., 1990, N. Eng. J. Med. 323:1781-1788; Mangano et al., 1992, JAMA 268:233-239).
(§1) Patients were randomized to receive either atenolol “TENORMIN” (Zeneca Pharmaceuticals) or placebo prior to induction of anesthesia, immediately following surgery, and daily throughout their hospitalization (up to 7 days). Drug assignment, study physicians, treating clinicians, and data analysis personnel were blinded to study group throughout all phases of this trial.
(§2) Intravenous preparation consisted of two-10-ml syringes, each containing 5 mg atenolol or placebo; oral preparation consisted of two 50 mg tablets of atenolol, or two placebo tablets. Approximately one hour prior to surgery, patients entered the preoperative area and blood pressure was recorded with an automated cuff and 5-lead continuous electrocardiograph. Thirty-minutes prior to entry into the operating room, intravenous administration of study drug began. Exclusion criteria for study drug administration were heart rate <55 bpm, systolic blood pressure <100 mm Hg, or evidence of congestive heart failure, third degree heart block, or bronchospasm (ISIS-I protocol, 1986, Lancet 2:56-66). […] Immediately following surgery, the study drug was again given using the identical technique applied prior to surgery. On the morning of the first postoperative day, and daily thereafter until the patient was discharged from the hospital (up to a maximum of seven days), patients received study drug every 12 hours using the same technique for intravenous infusion, or orally (if able) at which time a tablet of atenolol (0, 50 or 100 mg) or placebo was given daily. If heart rate was >65 bpm and systolic blood pressure >100 mm Hg, 100 mg atenolol (or placebo) was given orally; if heart rate was >55 but <65 bpm and systolic blood pressure >100 mm Hg, 50 mg atenolol (or placebo) was administered; if heart rate was <55 bpm or systolic blood pressure <100 mm Hg, 0 mg atenolol (or placebo) was given. No treating clinician was allowed to observe study drug administration either prior to, or after, surgery.
(§3) All patients received general anesthesia with endotracheal intubation; preoperative medications were continued until the time of surgery, with beta-blockers replaced by study drug on the morning of surgery. There were no other protocol-based restrictions of anesthetic or surgical technique, and clinical decisions were not controlled by study protocol. Perioperative information was recorded and analyzed for possible confounding effects, and included: type and duration of surgery, anesthetic techniques, fluid and blood loss and replacement, cardiovascular medications, hemodynamics, electrocardiographic data, and adverse events.
At six months, one year and two years following surgery, study physicians conducted scheduled research study visits that were independent of usual clinical care.

[2] = system: patients with, or at risk for coronary artery disease and scheduled for elective noncardiac surgery; experiment: Same trial: in-hospital tolerance, hemodynamics and in-hospital deaths during study drug administration
Protocol: as §1, §2, §3
At six months, one year and two years following surgery, study physicians conducted scheduled research study visits that were independent of usual clinical care. Data collected during each visit included history and physical examination, a 12-lead electrocardiogram, and review of all medical records, medications and hospital admissions. Cardiac death was diagnosed if the patient died of either a myocardial infarction, dysrhythmia or congestive heart failure caused primarily by a cardiac condition.

[3] = long-term deaths, one line per patient of the atenolol group

SMILES: CC(C)NCC(O)COc1ccc(CC(N)=O)cc1 (stereo not drawn) [atenolol]
- HAZARDS RATIO, two-year mortality, multivariate models ([1]; Cox multivariate, 30 deaths among 200 patients): 0.5
- HAZARDS RATIO, two-year mortality, univariable models ([1]; Cox univariable, 30 deaths among 200 patients): 0.4
- hazard ratio, survival in diabetics at two years ([1]; diabetics, two years, P=0.03): 0.25
- improvement of survival in diabetics at two years ([1]; diabetics, two years, P=0.03): approximately 75%
- deaths over the first 6-8 months ([1]; first 6-8 months, noncardiac, placebo 10 deaths with 7 cardiac-related, P<0.001): one
- CAUSE OF DEATH [1, 3]: Respiratory failure and Ventricular tachycardia and Severe CAD, sepsis and Sepsis, ALS and Metastatic renal CA and CHF post CABG and ARDS and Cardiac arrest, lung CA and Metastatic squamous cell CA, larynx, lung
- TIME TO DEATH [1, 3]: 237 days and 295 days and 327 days and 385 days and 416 days and 481 days and 529 days and 582 days and 656 days
- decrease in the rate of cardiac events within one year ([1]; one year, versus placebo): 3 fold
- cardiac events within one year following surgery ([1]; one year, placebo 22 patients, P=0.003): 7 patients
- time-to-first adverse event ([1]; placebo group 6 days): 158 days
- time to first death ([1]; placebo group 19 days): 237 days
- cardiac events within six months following surgery ([1]; six months, placebo 12 patients, P<0.001): 0 patients
- cardiovascular event-free survival of patients (FIG. 2) ([1]; two years after surgery): increases cardiovascular event-free survival of patients for two years after surgery
- survival of patients (FIG. 1) ([1]; two years after surgery): increases the survival of patients for two years after surgery
- decrease in the rate of cardiac events within two years ([1]; two years, versus placebo): 2 fold
- reduction in all-cause mortality ([1]; two years, versus placebo, P=0.019): 57%
- reduction in cardiac mortality ([1]; two years, versus placebo, P=0.033): 67%
- cardiac-related deaths over the two-year outcome period ([1]; two years, placebo 12 cardiac): 4 deaths
- deaths (all-cause) over the two-year outcome period ([1]; two years, placebo 21 deaths, P=0.019): 9 deaths
- cardiac events within two years following surgery ([1]; two years, placebo 32 patients, P=0.008): 16 patients
- noncardiac deaths secondary to metastatic cancer during hospitalization ([2]; during hospitalization): two
- noncardiac deaths with pulmonary failure secondary to massive infusion for fluid loss during hospitalization ([2]; during hospitalization): one
- cardiac deaths secondary to myocardial infarction during hospitalization ([2]; during hospitalization, placebo two): one
- average heart rate during treatment ([2]; during treatment, placebo 87 bpm, P<0.001): 75 bpm
- maximum heart rate during treatment ([2]; during treatment, placebo 130 bpm, P<0.001): 113 bpm
- patients tolerating the full dose ([2]; human, in vivo): more than 60%
- patients who tolerated administration ([2]; human, in vivo): More than 85%
- patients with 20% or more decrease in systolic blood pressure or heart rate ([2]; human, in vivo, iv): approximately 10%
- patients who developed systolic blood pressure <90 mm Hg or heart rate <40 bpm, or required therapy ([2]; in vivo, iv): no patient
- incidence of hypotension or bradycardia, or other events ([2]; in vivo, po): not associated with an increased incidence
